Measurements reported in patent EP0207599A1, “Arachidonic acid analogues” (BEECHAM GROUP PLC, priority 1985, dated 1987).

Each compound was assayed on Phospholipase A2 (Naja naja venom , Sigma) (assay: Inhibition of phospholipase A2 activity (release of 14C-arachidonic acid from phosphatidylcholine substrate)). Conditions: at 20µM; mean ± standard deviation of triplicate samples; 37°C, pH 8.7, CaCl2 4mM.
Format: biochemical
Protocol: Method For The Measurement of Inhibition of Phospholipase A2 Activity
Enzyme: Phospholipase A2 (Naja naja venom , Sigma)
Substrate: Diarachidoyl phosphatidylcholine (10.6mg) and α-1-palmitayl-2-[1-^14C]-arachidonyl phosphatidylcholine (0.5pCi; 52.9nCi/mMol) in 28ml of TrisHCl buffer = […], pH 8.7) ultrasonicated.
Assay: Incubations containing PLA2 (0.125ng) in Tris HC1 buffer (100mM, pH 8.7) and CaCl2 (4mM) were prepared on ice. Immediately prior to incubation at 37°C 5µl of DMSO or compound in DMSO were added. The final assay volume was 1.75ml. After 10 minutes incubation at 37°C 750pl of substrate was added, with mixing, and the incubation continued for a further 15 min. The reaction is terminated by placing on ice and adding 5m1 CHCl3:MeOH (2:1v/v).
The lower organic phase is remaved ahd stored under N2 at -20°C until analysed. Analysis is by 1-dimensional t.l.c. on polygram Sil G sheets in the solvent system: petroleum ether: diethyl ether: acetic acid (60:40:1, v/v). In this solvent system the phospholipid remains at the origin and the arachidonic acid has an approximate Rf. value of 0.36. The areas of interest are cut from the plates and their radioactivity determined by liquid scintillation counting.
All compounds are tested in triplicate.
Calculation: The radioactivity of the arachidonic acid is expressed as a percentage of the total dpm cut from the plate. The percentage inhibition of arachidonic acid release compared to that of the control is calculated after correction for the level of spontaneous release where: • x = % corrected mean arachidonic acid release in control • y = % corrected arachidonic acid release after inhibition [formula]
The nean of the triplicate sanples is calculated giving z ± standard deviation %.
For `CCCCCCC#Cc1ccccc1C#CCCC(C(=O)O)C(=O)O` [Example 13, 2-(4-[2-(1-octynyl)phenyl]-but-3-ynyl)malonic acid.], the “Percent inhibition of phospholipase A2 at x µM concentration.” value (from here on “Percent inhibition of phospholipase A2”) was 23.1± 17.6 at 20µM %.
With `CCCCCC/C=C\c1ccccc1/C=C\CCCC(=O)O` [Example 25, 6-[2-((Z)-1-octenyl)phenyl]-(Z)-hex-5-en-1-oic acid] the “Percent inhibition of phospholipase A2” value was 69.8± 8.3 at 20µM %.
In the case of `CCCCCCC#Cc1cccc(/C=C/CCCC(=O)O)c1` [Example 5, 6-[3-(1-Octynyl)phenyl]-E-hex-5-en-1-oic acid], the “Percent inhibition of phospholipase A2” value is reported as 78.9± 4.7 at 20µM %.
For `CCCCCCC#Cc1ccccc1C#CCCC(C(=O)O)C(=O)OC(C)(C)C` (centres unmarked) [Example 21, 2-(4-[2-(1-Octynyl)phenyl]-but-3-ynyl)malonic acid monotertbutyl ester], the “Percent inhibition of phospholipase A2” value was 62.0± 4.4 at 20µM %.
For “6-[2-(1-Octynyl)phenyl)hex-5-yn-1-oic acid [Example 23]”, the “Percent inhibition of phospholipase A2” value was 25.0± 19.0 at 20µM %.
In the case of “6-(2-(1-Octynyl)pheny]-E-hex-5-en-1-oic acid [Example 2]”, the “Percent inhibition of phospholipase A2” value is reported as 76.2± 13.9 at 20µM %.
For `CCCCCC/C=C\c1ccccc1/C=C/CCCC(=O)O` [Example 3, 6-[2-(Z-1-Octenyl)phenyl]-E-hex-5-en-1-oic acid], the “Percent inhibition of phospholipase A2” value was 72.9± 10.3 at 20µM %.
With `CCCCCC/C=C\c1ccccc1/C=C\CCC(C(=O)O)C(=O)O` [Example 15, 2-(4-[2-(Z)-1-Octenyl)phenyl-(Z)-but-3-enyl)malonic acid] the “Percent inhibition of phospholipase A2” value was 65.0± 17.0 at 20µM %.
